Measurements published in patent publication US20160264932A1, “METHOD FOR PREPARING CULTURE MEDIUM FOR CULTURING PLANT TISSUE, METHOD FOR CULTURING PLANT TISSUE, STERILIZING AGENT, MICROBICIDAL AGENT, AND CULTURE MEDIUM COMPOSITION FOR CULTURING PLANT TISSUE” (priority 2013, published 2016).

Key:
Assay type in all cases: cell-based
[1] = system: plant bodies; assay: Influence of agent concentration on growth of plant (solid culture medium, FIG. 6); details: 30 days
From the text: The influence of a change in the concentrations of the agents used for sterilizing the culture medium on the growth of plants was investigated. The culture condition in this experiment was as follows:
Culture medium components: solid culture medium dosed with Otsuka-A
Number of plant bodies: 10
Numerical values: average±standard deviation
Sterilizing method: one-time dosing mode
Inoculating method (Culturing method): the method shown in FIG. 4 was used, with SE-P2000Cl140/SE-P2000Cl140 as the first/second microbicidal liquids, respectively.
In FIG. 6, the “Autoclave (Conventional Method)” indicates comparative examples, in which an explant which had undergone a microbicidal treatment in an autoclave was placed in a liquid culture medium and cultured in a clean bench.

[2] = system: microbial colony formation (bacteria, filamentous fungi); assay: Microbial recontamination of sterilized solid culture medium after solidification (FIG. 8)
Protocol: A sterilized culture medium (Otsuka-A solid culture medium) was placed in 50 test tubes held in a tube stand and kept intact on a standard laboratory table (at temperatures of 14-24° C.), and the temporal change in the degree of microbial colony formation was investigated.

[3] = system: An (filamentous fungus, presumed to be Aspergillus niger complex); assay: Sterilizing effect of microbicidal liquids in the inoculating process (FIG. 9), An; details: bacteria inoculated on potato explant, explant treated, 14 days
Protocol: (§1) An experiment was conducted to determine how the sterilizing effect after inoculation is related to the concentrations and combination of the agents used in the microbicidal liquid for explants and the microbicidal liquid for culture vessels. The experimental condition was as follows:
(§2) Solid culture medium: dosed with Otsuka-A
(§3) Sterilizing method: autoclave
(§4) Method of inoculation of bacteria: on culture medium surface [as for “B5” and “S3”, 50 μL per test tube of the bacterial suspension was dropped onto the surface of the culture medium; and as for “An”, 10 mg per test tube of either a conidial powder or a conidial powder diluted with a-starch to a predetermined dilution ratio was poured onto the culture medium]; or on explant [as for “B5” and “S3”, the explant was immersed in the bacterial suspension (whereby 10 μL per explant was attached); and as for “An”, the explant was coated with either a conidial powder or a conidial powder diluted with a-starch to a predetermined dilution ratio (whereby 5 mg per explant was attached)]

[4] = system: B5 strain, presumed to be Bacillus subtilis; assay: Sterilizing effect of microbicidal liquids in the inoculating process (FIG. 9), B5; details: inoculated on potato explant; explant treated with microbicidal liquid (Cap or Nata 10000 mg/L or higher)
Protocol: as §1, §2, §3, §4

[5] = system: S3 strain, presumed to be Serratia sp.; assay: Sterilizing effect of microbicidal liquids in the inoculating process (FIG. 9), S3; details: inoculated on potato explant; explant treated with microbicidal liquid (Ox 200 mg/L or higher; Nata 10000 mg/L or higher)
Protocol: as §1, §2, §3, §4

[6] = system: external bacteria; assay: Occurrence rate of microbial contamination of liquid culture medium after sterilization (FIG. 14); details: explants inoculated in a common room, no bacteria inoculated
Protocol: The contamination rate by external bacteria after sterilization of a liquid culture medium was investigated. In any cases, the result was obtained under the condition that the inoculation of explants was performed in a common room with no bacteria inoculated. […] The microbial contamination rate increased when any one of the following agents was omitted: SE-P, Nisin, Ox, Nata, Cap, Imp10 and Cl7.

| Compound | concentration that did not negatively affect growth [1] [µg/mL] | open storage of the culture ([2]; Natamycin in addition to P1670, Nisaplin and wettable powder STARNER, no ZonenC) | newly invasion of filamentous fungi ([2]; used in addition to P1670, Nisaplin and wettable powder STARNER) | concentration in microbicidal liquid preventing An colony formation to some extent [3] [mg/L] | formation of B5 colonies [4] | formation of S3 colonies [5] | microbial contamination rate when the agent was omitted [6] | need of adding the agent to prevent microbial contamination [6] |
| --- | --- | --- | --- | --- | --- | --- | --- | --- |
| C[C@@H]1C/C=C/C=C/C=C/C=C/[C@H](O[C@@H]2O[C@H](C)[C@@H](O)[C@H](N)[C@@H]2O)C[C@@H]2O[C@](O)(C[C@@H](O)C[C@H]3O[C@@H]3/C=C/C(=O)O1)C[C@H](O)[C@H]2C(=O)O [Natamycin] | ≤ 100 | open storage of the culture was not possible | dramatically decreased | ≥ 10000 | could not prevent | could not prevent | increased |  |
| Egg-white lysozyme |  |  |  |  |  |  |  | not necessary |
